Test results from patent US20140343000A1 (priority 2011, published 2014).

Tested on: recombinant NL4-3 virus (Renilla luciferase in nef, Gag P373S; NLRluc) in MT-2 cells
Assay: whole plant or invertebrate
Format: cell-based, HIV
Details: Renilla, NL43, luciferase activity in cells infected for 4-5 days with NLRluc recombinants, serial dilutions of inhibitor; class symbols (key in Table 1); read-out: EC50
Procedure, shortened: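 Luciferase signal is the read-out: after 4-5 days of infection in the presence of serially diluted compound, MT-2 cells are lysed with a premix of lysis buffer, luciferase reagent and Stop & Glo substrate, and luminescence is read immediately.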

| SMILES | EC50 [nM] |
| --- | --- |
| C=C(C)[C@@H]1CC[C@]2(NC(=O)OCCCN3CCS(=O)(=O)CC3)CC[C@]3(C)[C@H](CC[C@@H]4[C@@]5(C)CC=C(c6ccc(C(=O)O)cc6)C(C)(C)[C@@H]5CC[C@]43C)[C@@H]12 [Example 70, benzoic acid, 4-[(1R,3aS,5aR,5bR,7aR,11aS,11bR,13aR,13bR)-3a-[[[3-(1,1-dioxido-4-thiomorpholinyl)propoxy]carbonyl]amino]2,3,3a,4,5,5a,5b,6,7,7a,8,11,11a,11b,12,13,13a,13b-octadecahydro-5a,5b,8,8,11a-pentamethyl-1-(1-methylethenyl)-1H-cyclopenta[a]chrysen-9-yl]] | < 100 |
| C=C(C)[C@@H]1CC[C@]2(NCCNc3nccc(SC)n3)CC[C@]3(C)[C@H](CC[C@@H]4[C@@]5(C)CC=C(c6ccc(C(=O)O)cc6)C(C)(C)[C@@H]5CC[C@]43C)[C@@H]12 [Example 197, 4-((1R,3aS,5aR,5bR,7aR,11aS,11bR,13aR,13bR)-5a,5b,8,8,11a-pentamethyl-3a-(2-(4-(methylthio)pyrimidin-2-ylamino)ethylamino)-1-(prop-1-en-2-yl)-2,3,3a,4,5,5a,5b,6,7,7a,8,11,11a,11b,12,13,13a,13b-octadecahydro-1H-cyclopenta[a]chrysen-9-yl)benzoic acid] | < 100 |
| C=C(C)[C@@H]1CC[C@]2(NC(=O)C3CCCN3S(C)(=O)=O)CC[C@]3(C)[C@H](CC[C@@H]4[C@@]5(C)CC=C(c6ccc(C(=O)O)cc6)C(C)(C)[C@@H]5CC[C@]43C)[C@@H]12 (stereo partly drawn) [Example 113, 4-((1R,3aS,5aR,5bR,7aR,11aS,11bR,13aR,13bR)-5a,5b,8,8,11a-pentamethyl-3a-(1-(methylsulfonyl)pyrrolidine-2-carboxamido)-1-(prop-1-en-2-yl)-2,3,3a,4,5,5a,5b,6,7,7a,8,11,11a,11b,12,13,13a,13b-octadecahydro-1H-cyclopenta[a]chrysen-9-yl)benzoic acid] | < 100 |
| C=C(C)[C@@H]1CC[C@]2(NCC3CCCNC3)CC[C@]3(C)[C@H](CC[C@@H]4[C@@]5(C)CC=C(c6ccc(C(=O)O)cc6)C(C)(C)[C@@H]5CC[C@]43C)[C@@H]12 (stereo partly drawn) [Example 154, 4-((1R,3aS,5aR,5bR,7aR,11aS,11bR,13aR,13bR)-5a,5b,8,8,11a-pentamethyl-3a-(piperidin-3-ylmethylamino)-1-(prop-1-en-2-yl)-2,3,3a,4,5,5a,5b,6,7,7a,8,11,11a,11b,12,13,13a,13b-octadecahydro-1H-cyclopenta[a]chrysen-9-yl)benzoic acid] | < 100 |
| C=C(C)[C@@H]1CC[C@]2(NC(=O)N3CCN(C(=O)OC(C)(C)C)CC3C(=O)O)CC[C@]3(C)[C@H](CC[C@@H]4[C@@]5(C)CC=C(c6ccc(C(=O)O)cc6)C(C)(C)[C@@H]5CC[C@]43C)[C@@H]12 (mixture of isomers) [Example 62, 4-(tert-butoxycarbonyl)-1-((1R,3aS,5aR,5bR,7aR,11aS,11bR,13aR,13bR)-9-(4-carboxyphenyl)-5a,5b,8,8,11a-pentamethyl-1-(prop-1-en-2-yl)-2,3,3a,4,5,5a,5b,6,7,7a,8,11,11a,11b,12,13,13a,13b-octadecahydro-1H-cyclopenta[a]chrysen-3a-ylcarbamoyl)piperazine-2-carboxylic acid] | < 100 |
| C=C(C)[C@@H]1CC[C@]2(NC(=O)CN3CCCC3=O)CC[C@]3(C)[C@H](CC[C@@H]4[C@@]5(C)CC=C(c6ccc(C(=O)O)cc6)C(C)(C)[C@@H]5CC[C@]43C)[C@@H]12 [Example 95, 4-((1R,3aS,5aR,5bR,7aR,11aS,11bR,13aR,13bR)-5a,5b,8,8,11a-pentamethyl-3a-(2-(2-oxopyrrolidin-1-yl)acetamido)-1-(prop-1-en-2-yl)-2,3,3a,4,5,5a,5b,6,7,7a,8,11,11a,11b,12,13,13a,13b-octadecahydro-1H-cyclopenta[a]chrysen-9-yl)benzoic acid] | < 100 |
| C=C(C)[C@@H]1CC[C@]2(NCCN3CCN(C(=O)CCC)CC3)CC[C@]3(C)[C@H](CC[C@@H]4[C@@]5(C)CC=C(c6ccc(C(=O)O)cc6)C(C)(C)[C@@H]5CC[C@]43C)[C@@H]12 [Example B61, 4-((1R,3aS,5aR,5bR,7aR,11aS,11bR,13aR,13bR)-3a-((2-(4-butyrylpiperazin-1-yl)ethyl)amino)-5a,5b,8,8,11a-pentamethyl-1-(prop-1-en-2-yl)-2,3,3a,4,5,5a,5b,6,7,7a,8,11,11a,11b,12,13,13a,13b-octadecahydro-1H-cyclopenta[a]chrysen-9-yl)benzoic acid] | < 100 |
| C=C(C)[C@@H]1CC[C@]2(NCCN3CCCC3=O)CC[C@]3(C)[C@H](CC[C@@H]4[C@@]5(C)CC=C(c6ccc(C(=O)O)c(F)c6)C(C)(C)[C@@H]5CC[C@]43C)[C@@H]12 [Example A4, 2-fluoro-4-((1R,3aS,5aR,5bR,7aR,11aS,11bR,13aR,13bR)-5a,5b,8,8,11a-pentamethyl-3a-(2-(2-oxopyrrolidin-1-yl)ethylamino)-1-(prop-1-en-2-yl)-2,3,3a,4,5,5a,5b,6,7,7a,8,11,11a,11b,12,13,13a,13b-octadecahydro-1H-cyclopenta[a]chrysen-9-yl)benzoic acid] | < 100 |
| C=C(C)[C@@H]1CC[C@]2(NC(=O)N(CCOC)CCN3CCS(=O)(=O)CC3)CC[C@]3(C)[C@H](CC[C@@H]4[C@@]5(C)CC=C(c6ccc(C(=O)O)cc6)C(C)(C)[C@@H]5CC[C@]43C)[C@@H]12 [Example 67, 4-((1R,3aS,5aR,5bR,7aR,11aS,11bR,13aR,13bR)-3a-(((2-(1,1-dioxido-4-thiomorpholinyl)ethyl)(2-methoxyethyl)carbamoyl)amino)-1-isopropenyl-5a,5b,8,8,11a-pentamethyl-2,3,3a,4,5,5a,5b,6,7,7a,8,11,11a,11b,12,13,13a,13b-octadecahydro-1H-cyclopenta[a]chrysen-9-yl)benzoic acid] | < 100 |
| C=C(C)[C@@H]1CC[C@]2(NC(=O)C(=O)N(C)C)CC[C@]3(C)[C@H](CC[C@@H]4[C@@]5(C)CC=C(c6ccc(C(=O)O)cc6)C(C)(C)[C@@H]5CC[C@]43C)[C@@H]12 [Example 76, 4-((1R,3aS,5aR,5bR,7aR,11aS,11bR,13aR,13bR)-3a-(2-(dimethylamino)-2-oxoacetamido)-5a,5b,8,8,11a-pentamethyl-1-(prop-1-en-2-yl)-2,3,3a,4,5,5a,5b,6,7,7a,8,11,11a,11b,12,13,13a,13b-octadecahydro-1H-cyclopenta[a]chrysen-9-yl)benzoic acid] | < 100 |
| C=C(C)[C@@H]1CC[C@]2(NC(=O)CN3C(=O)OC[C@@H]3c3ccccc3)CC[C@]3(C)[C@H](CC[C@@H]4[C@@]5(C)CC=C(c6ccc(C(=O)O)cc6)C(C)(C)[C@@H]5CC[C@]43C)[C@@H]12 [Example 107, 4-((1R,3aS,5aR,5bR,7aR,11aS,11bR,13aR,13bR)-5a,5b,8,8,11a-pentamethyl-3a-(2-((S)-2-oxo-4-phenyloxazolidin-3-yl)acetamido)-1-(prop-1-en-2-yl)-2,3,3a,4,5,5a,5b,6,7,7a,8,11,11a,11b,12,13,13a,13b-octadecahydro-1H-cyclopenta[a]chrysen-9-yl)benzoic acid] | < 100 |
| C=C(C)[C@@H]1CC[C@]2(NC(=O)C3(NC(=O)OC(C)(C)C)CC3)CC[C@]3(C)[C@H](CC[C@@H]4[C@@]5(C)CC=C(c6ccc(C(=O)O)cc6)C(C)(C)[C@@H]5CC[C@]43C)[C@@H]12 [Example 130-2, 4-((1R,3aS,5aR,5bR,7aR,11aS,11bR,13aR,13bR)-3a-(1-(tert-butoxycarbonylamino)cyclopropanecarboxamido)-5a,5b,8,8,11a-pentamethyl-1-(prop-1-en-2-yl)-2,3,3a,4,5,5a,5b,6,7,7a,8,11,11a,11b,12,13,13a,13b-octadecahydro-1H-cyclopenta[a]chrysen-9-yl)benzoic acid] | < 100 |
| CNC(=O)CN[C@]12CC[C@@H](C(C)C)[C@@H]1[C@H]1CC[C@@H]3[C@@]4(C)CC[C@H](c5ccc(C(=O)O)cc5)C(C)(C)[C@@H]4CC[C@@]3(C)[C@]1(C)CC2 [Example B10, 4-((1S,3aS,5aR,5bR,7aS,9S,11aS,11bR,13aR,13bR)-1-isopropyl-5a,5b,8,8,11a-pentamethyl-3a-((2-(methylamino)-2-oxoethyl)amino)icosahydro-1H-cyclopenta[a]chrysen-9-yl)benzoic acid] | < 100 |
| C=C(C)[C@@H]1CC[C@]2(NC(=O)CN(C(C)C)C(C)C)CC[C@]3(C)[C@H](CC[C@@H]4[C@@]5(C)CC=C(c6ccc(C(=O)O)cc6)C(C)(C)[C@@H]5CC[C@]43C)[C@@H]12 [Example 123, 4-((1R,3aS,5aR,5bR,7aR,11aS,11bR,13aR,13bR)-3a-(2-(diisopropylamino)acetamido)-5a,5b,8,8,11a-pentamethyl-1-(prop-1-en-2-yl)-2,3,3a,4,5,5a,5b,6,7,7a,8,11,11a,11b,12,13,13a,13b-octadecahydro-1H-cyclopenta[a]chrysen-9-yl)benzoic acid] | < 100 |

Same assay, conditions: Renilla, NL43, luciferase activity in cells infected for 4-5 days with NLRluc recombinants, serial dilutions of inhibitor; numeric values; read-out: EC50

| SMILES | EC50 [nM] |
| --- | --- |
| C=C(C)[C@@H]1CC[C@]2(NCCNc3ccccn3)CC[C@]3(C)[C@H](CC[C@@H]4[C@@]5(C)CC=C(c6ccc(C(=O)O)cc6)C(C)(C)[C@@H]5CC[C@]43C)[C@@H]12 [Example 188, 4-((1R,3aS,5aR,5bR,7aR,11aS,11bR,13aR,13bR)-5a,5b,8,8,11a-pentamethyl-1-(prop-1-en-2-yl)-3a-(2-(pyridin-2-ylamino)ethylamino)-2,3,3a,4,5,5a,5b,6,7,7a,8,11,11a,11b,12,13,13a,13b-octadecahydro-1H-cyclopenta[a]chrysen-9-yl)benzoic acid] | 1 |
